From patent publication US5420339A, “Alpha-aryl or heteroaryl-substituted amide ester ACAT inhibitors” (Warner-Lambert Company, priority 1993, dated 1995)

Experiments:
[1] = in vivo adrenal toxicity screen in guinea pigs (Dominick et al.); parameters: species or system male guinea pigs of the Hartley strain; conditions: 100 mg/kg daily gavage, 2 weeks; for toxicity class to the adrenal gland: oleic acid vehicle
Description: Male guinea pigs of the Hartley strain (450-500 g) were obtained from Charles River and randomly divided into treatment groups. They were fed standard guinea pig chow ad libitum and dosed daily (AM) by gavage (100 mg/kg). The test compounds were dissolved or suspended in an oleic acid vehicle to facilitate absorption. After 2 weeks the animals were sacrificed by CO2 asphyxiation in the nonfasted state 16 hours after the last dose. Adrenal glands were weighed, fixed in 10% formalin, processed by routine paraffin techniques, sectioned, and then stained with hematoxylin and eosin for light microscopy. Toxicity was defined by the incidence, severity, and complexity of adrenal histopathologic alterations in the zona fasciculata (e.g., adrenal cortical atrophy, increased coarse vacuolation, single-cell necrosis, inflammatory cell infiltrates, mineralization/ectopic bone formation, and increased cytoplasmic eosinophilia).

[2] = APCC in vivo screen: blood cholesterol in rats on PCC diet with cholic acid; parameters: species or system male Sprague-Dawley rats; conditions: single dosing at 4 PM, PCC diet overnight with 1% or 0.5% cholic acid, sacrificed 8 AM
Description: The compounds were also evaluated in an in vivo screen designated APCC whereby male Sprague-Dawley rats (200 to 225 g) were randomly divided into treatment groups and dosed at 4 PM with either vehicle (CMC/Tween) or suspensions of compounds in vehicle. The normal chow diet was then replaced with the PCC diet with either 1% or 0.5% cholic acid. The rats consumed this diet ad libitum during the night and were sacrificed at 8 AM to obtain blood samples for cholesterol analysis using standard procedures. Statistical differences between mean cholesterol values for the same vehicle were determined using analysis of variance followed by Fisher-s least significant test.
The data appear in Table II where they are expressed as % change.

Compound	APCC % Change TC [2] [%]	also measured
CCCCCCCCCCCCC(C)OC(=O)CC(=O)Nc1c(C(C)C)cccc1C(C)C (racemic) [(±)3-[[2,6-bis(1-methylethyl)phenyl]amino]-3-oxo-propanoic acid, 1-methyltridecyl ester]		atrophy of the zona reticularis (incidence) [1]: two of six; cytotoxic zonal atrophy of the zona fasciculata (incidence) [1]: six of six; increased coarse vacuoles (incidence) [1]: two of six; inflammatory cell infiltrates (incidence) [1]: four of six; necrosis of the adrenal cortex (incidence) [1]: four of six; toxicity class to the adrenal gland [1]: highly toxic to the adrenal gland
CCCCCCCCCCCCC(C)OC(=O)C(C(=O)Nc1c(C(C)C)cccc1C(C)C)c1ccccc1 (racemic) [Example 1, (±)-Benzeneacetic acid, α-[[[2,6-bis(1-methylethyl)phenyl]amino]carbonyl]-, 1-methyltridecylester]	-61	increased coarse vacuoles (incidence) [1]: one of six; toxicity class to the adrenal gland [1]: nontoxic to the adrenal gland
CCCCCCCCCCCCOC(=O)C(C(=O)Nc1c(C(C)C)cccc1C(C)C)c1ccccc1 (racemic) [Example 3, (±)-Benzeneacetic acid, α-[[[2,6-bis(1-methylethyl)phenyl]amino]carbonyl]-, dodecyl ester]	-63	increased coarse vacuoles (incidence) [1]: five of six; toxicity class to the adrenal gland [1]: nontoxic to the adrenal gland
CCCCCCCCCCC(C)OC(=O)C(C(=O)Nc1c(C(C)C)cccc1C(C)C)c1ccccc1 (racemic) [Example 4, (±)-Benzeneacetic acid, α-[[[2,6-bis(1-methylethyl)phenyl]amino]carbonyl]-, 1-methylundecyl ester]	-37	
CCCCCCCCCCCCCCOC(=O)C(C(=O)Nc1c(C(C)C)cccc1C(C)C)c1ccccc1 (racemic) [Example 5, (±)-Benzeneacetic acid, α-[[[2,6-bis(1-methylethyl)phenyl]amino]carbonyl]-, tetradecyl ester]	-49	
CCCCCCCCCCOC(=O)C(C(=O)Nc1c(C(C)C)cccc1C(C)C)c1ccccc1 (racemic) [Example 6, (±)-Benzeneacetic acid, α-[[[2,6-bis(1-methylethyl)phenyl]amino]carbonyl]-, decyl ester]	-58	
CCCCCC(C)OC(=O)C(C(=O)Nc1c(C(C)C)cccc1C(C)C)c1ccccc1 (racemic) [Example 7, (±)-Benzeneacetic acid, α-[[[2,6-bis(1-methylethyl)phenyl]amino]carbonyl]-, 1-methylhexyl ester]	-67	
CCCCCCCOC(=O)C(C(=O)Nc1c(C(C)C)cccc1C(C)C)c1ccccc1 (racemic) [Example 8, (±)-Benzeneacetic acid, α-[[[2,6-bis(1-methylethyl)phenyl]amino]carbonyl]-, heptyl ester]	-71	
CCCOC(=O)C(C(=O)Nc1c(C(C)C)cccc1C(C)C)c1ccccc1 (racemic) [Example 9, (±)-Benzeneacetic acid, α-[[[2,6-bis(1-methylethyl)phenyl]amino]carbonyl]-, propyl ester]	-20	
CCCCCCCCOC(=O)C(C(=O)Nc1c(C(C)C)cccc1C(C)C)c1ccccc1 (racemic) [Example 10, (±)-Benzeneacetic acid, α-[[[2,6-bis(1-methylethyl)phenyl]amino]carbonyl]-, octyl ester]	-56	
CCCCCCCCCOC(=O)C(C(=O)Nc1c(C(C)C)cccc1C(C)C)c1ccccc1 (racemic) [Example 11, (±)-Benzeneacetic acid, α-[[[2,6-bis(1-methylethyl)phenyl]amino]carbonyl]-, nonyl ester]	-67	
CCCCCCCCCCCCC(C)(C)OC(=O)C(C(=O)Nc1c(C(C)C)cccc1C(C)C)c1ccccc1 (racemic) [Example 12, (±)-Benzeneacetic acid, α-[[[2,6-bis(1-methylethyl)phenyl]amino]carbonyl]-, 1,1-dimethyltridecyl ester]	-26	
CCCCCCCCCCCCCCCCOC(=O)C(C(=O)Nc1c(C(C)C)cccc1C(C)C)c1ccccc1 (racemic) [Example 13, (±)-Benzeneacetic acid, α-[[[2,6-bis(1-methylethyl)phenyl]amino]carbonyl]-, hexadecyl ester]	-26	
CCCCCCCCCCCCCCCCCCOC(=O)C(C(=O)Nc1c(C(C)C)cccc1C(C)C)c1ccccc1 (racemic) [Example 14, (±)-Benzeneacetic acid, α-[[[2,6-bis(1-methylethyl)phenyl]amino]carbonyl]-, octadecyl ester]	-25	
CCCCC(C)(C)OC(=O)C(C(=O)Nc1c(C(C)C)cccc1C(C)C)c1ccccc1 (racemic) [Example 15, (±)-Benzeneacetic acid, α-[[[2,6-bis(1-methylethyl)phenyl]amino]carbonyl]-, 1,1-dimethylpentyl ester]	-72	
CCCCCCCCCCCCCCC(C)OC(=O)C(C(=O)Nc1c(C(C)C)cccc1C(C)C)c1ccccc1 (racemic) [Example 16, (±)-Benzeneacetic acid, α-[[[2,6-bis(1-methylethyl)phenyl]amino]carbonyl]-, 1-methylpentadecyl ester]	-37	
CCCCCCCCCCCCC(C)OC(=O)C(C(=O)Nc1c(OC)cc(OC)cc1OC)c1ccccc1 (racemic) [Example 17, (±)-Benzeneacetic acid, α-[[(2,4,6-trimethoxyphenyl)amino]carbonyl]-, 1-methyltridecyl ester]	-59	
CCCCCCCCCCCCOC(=O)C(C(=O)Nc1c(OC)cc(OC)cc1OC)c1ccccc1 (racemic) [Example 18, (±) -Benzeneacetic acid, α-[[(2,4,6-trimethoxyphenyl)amino]carbonyl]-, dodecyl ester]	-51	
CCCCCCCCCCCCOC(=O)C(C(=O)Nc1c(C(C)C)cccc1C(C)C)c1ccccn1 (racemic) [Example 19, (±)-2-pyridineacetic acid, α-[[[2,6-bis(1-methylethyl)phenyl]amino]carbonyl]-, dodecyl ester]	-43	
